The record followed here is patent publication US20090191185A1, “Reducing Cancer Cell Invasion Using an Inhibitor of Toll Like Receptor Signaling” (THE UAB RESEARCH FOUNDATION, priority 2006, published 2009).

Common to all, as to format: cell-based, human
For series [1], the system named is MMP-activity in MDA-MB-231 cells. Description: gelatin zymogram of MDA-MB-231 supernatants. The note with it: 2 μM added to final incubation of gels. The procedure:
Zymograms. The zymograms were performed as previously described (Suarex-Cuervo et al., Clin. Exp. Metastasis 21:525-33 (2004)). In this assay, the gelatinolytic bands represent the following MMPs: 120 kDa band represents MMP-9 and neutrophil gelatinase associated lipocalin complex, 90 kDa band represents pro-MMP-9 and the 72 kDa band represents proMMP-2. Briefly, MDA-MB-231 cells were plated on 12-well plates and allowed to reach confluency. The cells were then rinsed with PBS and serum-free medium, with the indicated concentrations of type C CpG-ODNs, type C non-CpG-ODNs or vehicle was applied for 24 h.

The subject of the next series is MDA-MB-231 cells. Briefly: Matrigel invasion assay, MDA-MB-231 cells. Here is the method:
(§1) In vitro invasion assays. For the Matrigel-invasion assay the cells were plated at the density of 5×10^4 (MDA-MB-231, U373, D54MG), 15×10^4 (T47-D) or 30×10^4 (MCF-7) cells per upper well in 750 μl of normal culture medium (Virtanen et al., Cancer Res. 62:2708-14 (2002)), indicated concentrations of the various CpG-ODNs, non-CpG-ODNs or vehicle were added to both the upper and lower wells. When indicated, aprotinin (2 μM), GM6001 (2 μM), MMP-8 inhibitor 1 (8 nM) or the same volume of the corresponding control compound, control IgG or neutralizing anti-MMP-13 antibody (R& D Systems, Minneapolis, Minn., both at 12 μg/ml) or chloroquine (10 μM) were also added to both upper and lower wells. The cells were allowed to invade for 18 h, after which the inserts were removed and stained with the Hema 3 Stain set (Fisher Diagnostics, Middletown, Pa.), according to the manufacturer's recommendation. The number of invaded cells was counted from 5 pre-selected microscopic fields using a 40× objective. To assess invasion in a three-dimensional type I collagen gel, acid solubilized type I collagen (0.9 ml) was added to the Costar Transwell dishes (Corning, Inc., Corning, N.Y.) and gelled over 45 min at 37° C. The collagen was prepared using rat-tail type 1 collagen dissolved in 0.2% acetic acid at 3.2 mg/ml and gelled by neutralizing the acid with 0.3 N NaOH containing phenol red as a pH indicator. A final concentration of 3.0 mg/ml was obtained. Media, containing vehicle or 10 μM type C CpG-ODN was men added to the upper and lower chambers prior to the addition of 5×10^5 cells to the surface of the collagen gel in the presence of serum-containing medium. […] Tumor cell invasion (depth and number of cells below the surface) was assessed by light microscopy in a minimum of four randomly selected sections for each experimental sample. The number of invading cells per high power field (400×) were counted and averaged. The depth of invasion was also measured in four randomly selected areas for each sample using photomicrograph of each sample.

The test system of series [2] is MCF-10A mammary epithelial cells. Briefly: Matrigel invasion assay, MCF-10A cells. The following applies: 1 and 10 μM.
The test system of series [3] is MCF-7 breast cancer cells. Description: Matrigel invasion assay, MCF-7 cells. The following applies: 1 and 10 μM. The procedure: as §1, with “objective.” for “objective. To assess invasion in a three-dimensional type I collagen gel, acid solubilized type I collagen (0.9 ml) was added to the Costar Transwell dishes (Corning, Inc., Corning, N.Y.) and gelled over 45 min at 37° C. The collagen was prepared using rat-tail type 1 collagen dissolved in 0.2% acetic acid at 3.2 mg/ml and gelled by neutralizing the acid with 0.3 N NaOH containing phenol red as a pH indicator. A final concentration of 3.0 mg/ml was obtained. Media, containing vehicle or 10 μM type C CpG-ODN was men added to the upper and lower chambers prior to the addition of 5×10^5 cells to the surface of the collagen gel in the presence of serum-containing medium.”

Series [4] deals with MDA-MB-231, T47-D or MCF-7 cells. Briefly: MTS cell viability assay, breast cancer cells. The procedure: Cell viability assays. MDA-MB-231, T47-D or MCF-7 cells were plated at the density of 1000 cells/well in 96-well plates in normal culture medium, and cultured for the indicated periods of time with 10 μM type C CpG-ODN or vehicle. Cell viability was assessed after MTS was added for the final 2 hours of the experimental cultures as recommended by the manufacturer (CellTiter 96 AQueous Non-Radioactive Cell Proliferation Assay, Promega, Madison, Wis.).
(In general: Tetrazolium assays rely on reduction of a dye to a coloured formazan, in cell work by metabolically active cells.)

The subject of the next series is PC-3 cells. Description: Matrigel invasion assay, PC-3 cells. Here is the method:
In vitro invasion assays. For the Matrigel-invasion assay the cells were plated at the density of 5×10^4 (PC-3, Du-145, LnCaP and MDA PCa 2b) cells per upper well in 500 μl of normal culture medium, Indicated concentrations of the various CpG-ODNs, bacterial DNA (E. Coli, Sigma, St. Louis, Mo.) or vehicle were added to both the upper and lower wells. When indicated, p38- or JNK-inhibitor (both at final concentration of 10^−5 M), control IgG or neutralizing anti-MMP-13 antibody (R&. D Systems, Minneapolis, Minn., both at 12 μg/ml) or chloroquine (10 μM) were also added to both upper and lower wells. […] The number of invaded cells were counted from 5 pre-selected microscopic fields using a 40× objective.

A further series concerns NFκB reporter gene. Briefly: NFκB reporter gene assay in transfected MDA-MB-231 pools. Here is the method:
MDA-MB-231 cells were stably transfected with pIRES-EGFP empty vector (EV) or with pIRES-EGFP-TRAF6DN-Flag. Stable pools were Flow-sorted for the expression of EGFP for 3 cycles. […] The same blots were stripped and re-blotted with antibodies against Flag, GFP and actin. For FIG. 12B, the various cells were transiently transfected with a NFκB reporter gene and treated with CpG-ODN or TNF-α. Reporter gene activation was calculated as fold-increase vs. vehicle-treatment. Mean±SD, n=6. * p<0.05, *** p<0.001 pIRES-EV vs. pIRES-EGFP-TRAF6DN. For FIG. 12C, the pIRES-EGFP and pIRES-EGFP-TRAF6DN cells were plated on Matrigel-assays and treated with vehicle or with 2 or 10 μM Non-CpG-ODN or CpG-ODN, The number of invaded cells were counted microscopically 22 h later. Data are expressed as fold-increase in treatment-induced invasion, mean±sd, n±3-6. * p<0.05, ** p<0.01 pIRES-EGFP vs. pIRES-EGFP-TRAF6DN.
Stable transfection of TRAF6 into MDA-MB-231 breast cancer cells. The cDNA encoding for dominant negative TRAF6 has been described previously (Yeo et al., (2003) J. Biol. Chem. 278:22563-22573). The pIRES-EGF-DNTRAF6-Flag and pIRES-EGF were stably transfected into the MDA-MB-231 cells. The established stable pools were submitted to three cycles of Flow-sorting for highest emission of GFP, to enrich the populations of transfected cells. […]

Entries after “also recorded” stand apart in the source; their conditions may differ. Oligonucleotides are written 5' to 3', each unit as a sugar letter and its base; * is a phosphorothioate linkage, no mark a phosphodiester; rarer units and linkages stand in square brackets, end groups in braces. Plain capitals give the bases only. d = 2'-deoxy (DNA)

As to aprotinin, the “effect on CpG-ODN-induced gelatinolytic band of about 50 kDa” value in series [1] is listed as “did not disappear; also recorded: not inhibited”.
As for `CNC(=O)[C@H](Cc1c[nH]c2ccccc12)NC(=O)[C@@H](CC(=O)NO)CC(C)C` [GM6001], in the series on MDA-MB-231 cells (inhibitor 2 μM, type C CpG-ODN 10 μM), the “effect on type C CpG-induced invasion of MDA-MB-231 cells” value is listed as “inhibited CpG-ODN-induced invasion; also recorded: inhibited by the MMP inhibitor”. In addition, in series [1], the “effect on CpG-ODN-induced gelatinolytic band of about 50 kDa” value was “abolished; also recorded: did disappear”.
With “type C non-CpG-ODN: 5′-tgc tgc tgc tig caa gca get tga t-3′ (SEQ ID NO:6), non-CpG-ODN control (DNA dT*dG*dC*dT*dG*dC*dT*dG*dC*dT*dT*dG*dC*dA*dA*dG*dC*dA*dG*dC*dT*dT*dG*dA*dT)”, the “invasion of MCF-10A cells” value is reported as “stimulated invasion” in series [2] and “induced a significant invasion response” in series [2] (listed as non-CpG-ODN). The “invasion of TLR9 negative MCF-7 cells” value in series [3] is “did not, however, stimulate invasion”; in series [3] (listed as non-CpG-ODN), “no significant effect”. For the same compound, the “cell viability (MTS), longer incubation” value in series [4] is “significantly decreased viability”.
As to `CCN(CC)CCCC(C)Nc1ccnc2cc(Cl)ccc12` (stereo not drawn) [chloroquine], the “effect on non-CpG-ODN-induced invasion” value in the series with MDA-MB-231 cells (chloroquine 10 μM, non-CpG-ODN 10 μM, 18 h) is recorded as “inhibited”. In addition, the “effect on CpG-ODN-induced invasion” value in the series with MDA-MB-231 cells (chloroquine 10 μM, type C CpG-ODN 10 μM, 18 h) is “blocked; also recorded: inhibited”. In addition, the “effect of chloroquine on E. coli DNA-induced invasion of PC-3 cells” value with PC-3 cells (chloroquine 10 μM, 1000 ng/ml E. coli DNA, 20 h) is listed as “inhibited”. Besides, in the series on PC-3 cells (chloroquine 10 μM, CpG-ODN 5 μM, 18 h), the “effect of chloroquine on CpG-ODN-induced invasion of PC-3 cells” value is “significantly inhibited; also recorded: inhibits CpG-ODN-induced invasion”.
As to `C[S+]([O-])c1ccc(-c2nc(-c3ccncc3)c(-c3ccc(F)cc3)[nH]2)cc1` (stereo not drawn) [p38 inhibitor, SB203580], in the series with PC-3 cells (inhibitor 10^−5 M, CpG-ODN 5 μM, 18 h), the “effect of MAP-kinase inhibitors on CpG-ODN-induced invasion of PC-3 cells” value is reported as “Neither of these inhibitors affected CpG-ODN-induced invasion”.
TNF-α: the “NFκβ-promoter activity in empty vector cells” value in the series on NFκB reporter gene (pIRES-EGFP empty vector MDA-MB-231) is recorded as “significant increase in NFκβ-promoter activity”. For the same compound, the “NFκβ-promoter activity in TRAF6DN-pool” value in the series with NFκB reporter gene (pIRES-EGFP-TRAF6DN MDA-MB-231) is on record as “blunted”.
